Results published in article PMC10570359, “Dietary supplementation of cystinotic mice by lysine inhibits the megalin pathway and decreases kidney cystine content” (Scientific Reports, 2023).

What was measured:
[1] = tested on: kidney proximal tubular cells; assay: Triple fluorescence of lysosomes and endogenous albumin in PTCs of Ctns KO mice (2-to-6 months diet); format: in vivo; settings: Ctns KO female mice, diet from 2-to-6 months-of-age
Procedure: For in vivo endocytic tracing in PTCs, Texas Red-ovalbumin (300 µg, Invitrogen #O23021) was injected intravenously at 20 min before sacrifice. For immunofluorescence, antigen retrieval was promoted in citrate buffer, pH 6, at 95 °C for 20 min using a Lab Vision Pretreatment Module™ (Thermo Scientific). Tissue was permeabilized with PBS/0.3% Triton-X100 for 5 min, then for one further hour with 10% bovine serum albumin (BSA)/3% milk to block non-specific sites. Sections were incubated overnight at 4 °C with the following primary reagents in blocking buffer: sheep anti-megalin (1/800, kindly provided by Drs P. Verroust and R. Kozyraki, INSERM U968, Paris, F-75012, FR), rat anti-LAMP-1 (1/100; #1D4B, Hybridoma Bank), mouse anti-ezrin (1/100, #MS-661-P1, ThermoScientific), mouse anti-Ki67 (1/250, #556003, BD-Pharmingen), rabbit anti-human albumin (1/1000; Dako #A0001). After washing, sections were further incubated with the appropriate AlexaFluor-secondary antibodies for 1 h at room temperature in 10% BSA/0.3% Triton-X100 and mounted with Faramount aqueous mounting medium (Dako). Sections were imaged on a spinning disk confocal microscope using EC Plan-NeoFluar 40X/1.3 or 100x/1.4 Oil DIC objective (Cell Observer Spinning Disk; Zeiss). Proliferative events in kidney cortex were quantified as described. Alternatively, whole kidney images were acquired using a Pannoramic 250 Flash III microscope (3DHistech). Histological PAS staining and quantification of the frequency of swan-neck lesions were performed as described. Sirius Red staining of paraffine sections and morphometry in total sagittal kidney sections after conversion to red fluorescence were performed as described[53],[54]. […]
Supplemental Figure 3. […]
not detected within PT lysosomes of dAA-treated mice under identical immunolabeling /imaging conditions, indicating impaired endocytosis and/or […] degradation upon dbAA supplementation. […]

megalin pathway [2] = assay: LMW proteinuria / albuminuria in Ctns KO mice under 5x-dAA diets
Procedure: After 24-h adaptation in metabolic cages, urine was collected during the following 24 h in presence of 0.1% sodium azide and 1x-protease inhibitors (Thermo Scientific). When in metabolic cages, mice had free access to tap water and food. Blood was collected 2 days before starting the treatments and entry into metabolic cages (baseline) and at the sacrifice to obtain serum. Body weight was recorded before entering the metabolic cages. Urine and serum analyses were performed by the veterinary laboratory Appialab Srl (Rome, Italy). Urinary levels of CC16 were measured by the Mouse Clara Cell Protein 16 kit 96 T #EKU03200 (Biomatik) according to manufacturer’s instructions. Serum levels of cystatin-C were measured by the Mouse/Rat Cystatin C Quantitative ELISA #MSCTC0 (R&D Systems). […] Creatinine clearance was normalized by mouse body weight.

megalin pathway [3] = assay: LMW proteinuria (urinary CC16) in WT mice under 5x-dAA diets; format: in vivo; settings: WT C57Bl-6 mice, 3 weeks diet, vs control diet
Procedure: In a second experiment, 5x-D-lysine was compared to regular diet.
Body weight was recorded before entering the metabolic cages. […] Creatinine clearance was normalized by mouse body weight.

megalin = assay: Confocal imaging of megalin localization in kidney proximal tubular cells of WT mice; format: in vivo; settings: WT female mice, two weeks diet, kidney cortex
Source text: Glom, glomerulus (no detectable megalin signal).

porcine megalin [4] = target: T1, porcine megalin (Sus scrofa, UniProt C0HL13); assay: Surface plasmon resonance: competition for TC:B12 binding to chip-immobilized megalin; settings: for IC50: IC50 for TC:B12/megalin interaction (mM; 95%CI), 10 µg/ml TC:B12 in 0 to 100 mM amino-acid, Biacore; for SPR signal of amino-acid alone on megalin chip: chips exposed to increasing concentrations of amino-acid, no analyte
Procedure: (§1) To directly address whether supra-physiological concentrations of dibasic amino-acids (dAAs) can interfere with binding of protein ligands to megalin, we used surface plasmon resonance. Sensor chips were derivatized with porcine megalin at high density. […] After flushing, chips were incubated with 10 µg/ml of three analytes: the megalin chaperone, RAP (receptor-associated protein), as positive control (not shown), or two physiological megalin ligands: transcobalamine:cobalamine complexes (TC:B12; Fig. 1; sensorgrams shown at Supplemental Fig. 1a) or lysozyme (Supplemental Fig. 1b), diluted in 0 to 100 mM of the same amino-acids in buffer. […] The supraphysiological range for effective competition in vitro defined the necessary increment in urinary concentration from dietary supplementation for significant competition in vivo.
Figure 1 Acellular assay: direct competition for transcobalamine:cobalamine binding to megalin immobilized on Biacore sensor chips. Signals of sensorgrams (shown in Supplemental Fig. 1) were normalized to control signal without AA supplementation, taken as the unity, and are means ± SEM of at least four independent technical duplicate values at each of the indicated amino-acid-concentrations.
(§2) Surface plasmon resonance (SPR) analysis of the binding to chip-immobilized megalin of receptor-associated protein (RAP), transcobalamine:cobalamine complex (TC:B12) and lysozyme was carried out using a Biacore T200 instrument (Uppsala, Sweden). The sensor chips (type CM5) were activated with a 1:1 mixture of 0.2 M N-ethyl-N′-(3-dimethylaminopropyl) carbodiimide and 0.05 M N-hydroxysuccinimide in H2O. Porcine megalin[49] was immobilized on the chip in 10 mM sodium acetate, pH 4.0, and the remaining binding sites were blocked with 1 M ethanolamine, pH 8.5. The SPR signal generated from immobilized megalin were obtained with a density of 4.5 fmol protein/mm^2.
(§3) Human RAP was produced as recombinant protein in E. coli[50] and used to validate the sensor chip. TC was purified and complexed with B12 as described (TC/B12)[50],[51]. Human recombinant lysozyme was purchased from Sigma-Aldrich (expressed in rice, # L1667). Sensorgrams were generated using each of these three ligands at 10 µg/ml in a running buffer consisting of 10 mM Hepes, 150 mM NaCl, 4 mM CaCl2 and 0.05% Tween 20, pH 7.4. The flow cells were regenerated with 1 M ethanolamine pH 9.0. Analyte testing was performed as a dual injection starting with running buffer supplemented with the defined concentrations of amino acids followed by injection of analyte in the same solution. The pH of all buffers was adjusted after amino acids addition. All binding experiments were made as at least independent triplicate of technical duplicates and data were analyzed using the Biacore T200 evaluation software version 3.1.

porcine megalin [5] = target: T1, porcine megalin; assay: Surface plasmon resonance: competition for lysozyme binding to chip-immobilized megalin; settings: 10 µg/ml lysozyme in 0 to 100 mM amino-acid
Procedure: as §1, §2, §3

[6] = Ctns KO mice at 8 months of age, 2 months of treatment, urine, mean ± SEM

T1 sequence (C0HL13 26-4652): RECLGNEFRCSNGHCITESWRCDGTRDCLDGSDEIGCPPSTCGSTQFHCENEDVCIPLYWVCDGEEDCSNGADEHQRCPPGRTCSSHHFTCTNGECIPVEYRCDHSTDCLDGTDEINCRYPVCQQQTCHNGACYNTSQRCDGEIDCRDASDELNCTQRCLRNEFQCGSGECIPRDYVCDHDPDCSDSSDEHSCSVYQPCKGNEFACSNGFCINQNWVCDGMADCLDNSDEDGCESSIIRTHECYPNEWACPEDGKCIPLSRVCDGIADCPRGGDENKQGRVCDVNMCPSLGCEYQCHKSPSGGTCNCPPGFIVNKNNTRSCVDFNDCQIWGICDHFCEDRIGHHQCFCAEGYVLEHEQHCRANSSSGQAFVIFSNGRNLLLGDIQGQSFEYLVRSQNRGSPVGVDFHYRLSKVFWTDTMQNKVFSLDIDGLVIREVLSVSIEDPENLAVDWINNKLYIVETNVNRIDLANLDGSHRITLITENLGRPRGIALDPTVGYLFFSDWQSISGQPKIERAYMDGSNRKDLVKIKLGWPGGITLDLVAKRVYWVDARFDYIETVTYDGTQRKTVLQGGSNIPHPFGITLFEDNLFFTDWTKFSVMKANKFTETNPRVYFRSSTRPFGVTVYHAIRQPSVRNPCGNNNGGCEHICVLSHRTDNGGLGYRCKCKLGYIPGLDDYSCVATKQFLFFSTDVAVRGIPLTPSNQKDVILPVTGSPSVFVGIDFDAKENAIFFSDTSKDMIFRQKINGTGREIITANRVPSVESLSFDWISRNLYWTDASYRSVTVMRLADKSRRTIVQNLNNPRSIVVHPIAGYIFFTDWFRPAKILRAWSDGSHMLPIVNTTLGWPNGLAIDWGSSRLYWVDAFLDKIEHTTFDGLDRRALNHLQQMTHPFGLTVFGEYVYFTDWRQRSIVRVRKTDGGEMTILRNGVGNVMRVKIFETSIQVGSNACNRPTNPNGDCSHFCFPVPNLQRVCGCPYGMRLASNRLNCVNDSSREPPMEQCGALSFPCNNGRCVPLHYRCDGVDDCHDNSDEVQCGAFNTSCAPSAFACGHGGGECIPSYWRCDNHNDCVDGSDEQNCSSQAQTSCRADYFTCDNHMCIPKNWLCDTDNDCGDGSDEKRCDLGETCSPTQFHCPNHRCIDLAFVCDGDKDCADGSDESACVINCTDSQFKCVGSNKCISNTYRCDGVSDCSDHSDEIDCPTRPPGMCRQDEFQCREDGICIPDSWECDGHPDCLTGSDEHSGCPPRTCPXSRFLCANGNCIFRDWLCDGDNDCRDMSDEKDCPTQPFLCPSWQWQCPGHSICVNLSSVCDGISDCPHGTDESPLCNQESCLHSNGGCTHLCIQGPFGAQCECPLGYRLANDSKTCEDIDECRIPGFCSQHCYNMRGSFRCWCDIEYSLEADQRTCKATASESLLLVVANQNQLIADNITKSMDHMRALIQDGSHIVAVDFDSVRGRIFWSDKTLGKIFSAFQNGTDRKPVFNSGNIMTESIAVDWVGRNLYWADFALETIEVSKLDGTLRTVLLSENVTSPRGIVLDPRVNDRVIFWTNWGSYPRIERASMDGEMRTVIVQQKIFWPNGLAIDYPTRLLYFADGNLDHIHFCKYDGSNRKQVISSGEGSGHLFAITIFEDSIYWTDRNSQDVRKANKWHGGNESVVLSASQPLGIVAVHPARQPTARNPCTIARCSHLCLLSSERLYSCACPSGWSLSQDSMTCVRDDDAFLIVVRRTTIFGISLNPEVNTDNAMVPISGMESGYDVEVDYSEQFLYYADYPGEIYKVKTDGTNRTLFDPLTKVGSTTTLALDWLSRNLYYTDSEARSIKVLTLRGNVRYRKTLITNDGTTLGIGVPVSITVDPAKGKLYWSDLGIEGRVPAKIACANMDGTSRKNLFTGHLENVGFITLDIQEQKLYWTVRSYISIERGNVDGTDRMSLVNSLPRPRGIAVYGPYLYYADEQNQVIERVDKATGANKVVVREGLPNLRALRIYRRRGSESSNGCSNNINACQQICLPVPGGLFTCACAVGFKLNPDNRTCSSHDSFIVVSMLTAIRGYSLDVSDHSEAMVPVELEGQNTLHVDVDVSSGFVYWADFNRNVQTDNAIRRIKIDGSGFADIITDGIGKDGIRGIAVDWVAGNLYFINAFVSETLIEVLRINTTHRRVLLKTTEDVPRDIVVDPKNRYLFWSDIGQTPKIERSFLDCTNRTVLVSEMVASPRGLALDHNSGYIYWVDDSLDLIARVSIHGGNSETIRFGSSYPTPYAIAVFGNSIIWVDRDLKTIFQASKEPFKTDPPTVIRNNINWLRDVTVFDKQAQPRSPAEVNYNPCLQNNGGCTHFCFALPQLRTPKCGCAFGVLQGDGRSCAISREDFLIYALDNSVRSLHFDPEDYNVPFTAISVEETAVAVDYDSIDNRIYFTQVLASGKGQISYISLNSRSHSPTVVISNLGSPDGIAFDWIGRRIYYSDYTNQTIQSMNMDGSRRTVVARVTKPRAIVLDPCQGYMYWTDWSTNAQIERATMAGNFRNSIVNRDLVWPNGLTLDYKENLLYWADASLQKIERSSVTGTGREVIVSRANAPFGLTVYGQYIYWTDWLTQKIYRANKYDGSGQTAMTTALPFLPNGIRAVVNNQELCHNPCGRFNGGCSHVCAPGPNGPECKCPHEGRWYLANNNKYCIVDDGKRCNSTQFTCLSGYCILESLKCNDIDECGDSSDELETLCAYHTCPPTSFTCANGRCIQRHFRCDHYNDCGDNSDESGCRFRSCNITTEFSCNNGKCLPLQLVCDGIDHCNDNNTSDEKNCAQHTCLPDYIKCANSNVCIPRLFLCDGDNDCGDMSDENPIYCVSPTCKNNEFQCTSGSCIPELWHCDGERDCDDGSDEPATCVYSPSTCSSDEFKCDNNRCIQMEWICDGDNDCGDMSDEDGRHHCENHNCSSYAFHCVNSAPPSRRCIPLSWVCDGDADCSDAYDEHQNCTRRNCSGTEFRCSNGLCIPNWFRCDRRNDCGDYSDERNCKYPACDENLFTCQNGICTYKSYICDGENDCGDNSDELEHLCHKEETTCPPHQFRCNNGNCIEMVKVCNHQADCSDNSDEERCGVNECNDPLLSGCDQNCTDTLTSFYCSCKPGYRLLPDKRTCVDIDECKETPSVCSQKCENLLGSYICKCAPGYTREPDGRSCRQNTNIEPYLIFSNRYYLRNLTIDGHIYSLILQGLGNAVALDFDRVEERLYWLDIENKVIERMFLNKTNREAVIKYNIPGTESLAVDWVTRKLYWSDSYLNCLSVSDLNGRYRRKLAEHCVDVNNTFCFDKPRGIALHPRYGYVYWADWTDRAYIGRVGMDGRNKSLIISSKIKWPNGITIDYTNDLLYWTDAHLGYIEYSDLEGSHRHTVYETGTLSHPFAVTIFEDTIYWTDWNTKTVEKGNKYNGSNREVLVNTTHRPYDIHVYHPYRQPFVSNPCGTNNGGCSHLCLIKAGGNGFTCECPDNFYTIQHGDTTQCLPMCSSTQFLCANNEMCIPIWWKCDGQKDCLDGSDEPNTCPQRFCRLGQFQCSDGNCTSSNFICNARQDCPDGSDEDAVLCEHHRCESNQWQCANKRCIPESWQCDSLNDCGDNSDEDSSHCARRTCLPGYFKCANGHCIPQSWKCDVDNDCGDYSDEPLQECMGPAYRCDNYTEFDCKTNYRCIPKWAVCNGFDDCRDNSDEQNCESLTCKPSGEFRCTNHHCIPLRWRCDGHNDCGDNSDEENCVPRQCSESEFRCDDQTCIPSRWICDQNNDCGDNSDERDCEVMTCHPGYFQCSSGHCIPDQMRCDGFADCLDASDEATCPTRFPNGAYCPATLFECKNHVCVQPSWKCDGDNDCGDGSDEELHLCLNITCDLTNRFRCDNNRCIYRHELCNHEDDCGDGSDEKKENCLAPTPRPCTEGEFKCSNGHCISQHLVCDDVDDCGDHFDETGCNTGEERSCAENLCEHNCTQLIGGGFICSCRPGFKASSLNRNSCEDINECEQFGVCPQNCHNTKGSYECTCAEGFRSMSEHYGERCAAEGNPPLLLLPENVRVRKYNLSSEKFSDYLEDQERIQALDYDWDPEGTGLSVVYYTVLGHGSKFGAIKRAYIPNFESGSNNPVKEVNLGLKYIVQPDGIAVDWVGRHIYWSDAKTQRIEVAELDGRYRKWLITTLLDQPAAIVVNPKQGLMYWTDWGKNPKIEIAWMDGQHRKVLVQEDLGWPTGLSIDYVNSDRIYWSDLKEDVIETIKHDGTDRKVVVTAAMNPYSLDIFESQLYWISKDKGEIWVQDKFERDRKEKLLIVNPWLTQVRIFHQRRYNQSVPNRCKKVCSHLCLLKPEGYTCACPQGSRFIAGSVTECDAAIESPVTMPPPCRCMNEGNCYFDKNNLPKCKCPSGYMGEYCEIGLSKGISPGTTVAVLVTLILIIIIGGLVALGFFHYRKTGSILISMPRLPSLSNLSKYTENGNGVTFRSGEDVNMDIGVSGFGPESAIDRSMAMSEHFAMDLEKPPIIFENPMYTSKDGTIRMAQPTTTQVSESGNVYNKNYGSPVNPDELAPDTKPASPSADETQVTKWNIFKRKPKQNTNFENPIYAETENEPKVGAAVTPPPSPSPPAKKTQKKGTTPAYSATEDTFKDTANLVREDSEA

Row | Structure (SMILES) | lysosomal enlargement/deformation in PTCs [1] | Urine CC16/creatinine (megalin pathway [2]; [6]) | increase of urinary excretion of CC16 (normalized for creatinine excretion) (megalin pathway [3]) | subcellular localization of megalin in PTCs (megalin) | IC50 (porcine megalin [4]) | SPR signal of amino-acid alone on megalin chip (porcine megalin [4]) | effect on megalin binding of lysozyme (porcine megalin [5]) | endogenous albumin signal in PTC lysosomes [1] | increase of microalbuminuria vs control diet (megalin pathway [2]; Ctns KO female mice, diet from 6-to-8 months of age) | Urine microalbumin/creatinine (megalin pathway [2]; [6])
1 | N=C(N)NCCC[C@H](N)C(=O)O [5x-L-arginine, L-arginine] | prevent lysosomal enlargement and distorsion | 3151 ± 556.1 µg/g | did not detectably increase | no relocation | 57 mM | no signal was detected | concentration-dependent decrease | – | – | –
2 | NCCCC[C@H](N)C(=O)O [5x-L-lysine, L-lysine] | prevent lysosomal enlargement and distorsion | 4314 ± 540.3 µg/g | 7 fold | no relocation | 25 mM | no signal was detected | concentration-dependent decrease | disappearance of albumin signal | no detectable increase | 0.1 ± 0.0 mg/g
